Results on eleven compounds are retold here after ChEMBL document CHEMBL1130514, “Design and synthesis of conformationally constrained arginal thrombin inhibitors” (Bioorg Med Chem Lett, 1997).

Where a SMILES comes first, the peptide text is derived from it. [ ]: non-standard residue; d: D form. The star is where a group is joined. dNMePhg = CN[C@@H](C(=O)O)c1ccccc1; PhAc = O=C(Cc1ccccc1)*

In one experiment the target is Prothrombin (Homo sapiens, UniProt P00734). Description: In vitro ability to inhibit the activity of human alpha Thrombin.
In the next experiment the target is T1, Serine protease 1 (Bos taurus, UniProt P00760).
T1 sequence (P00760 whole entry): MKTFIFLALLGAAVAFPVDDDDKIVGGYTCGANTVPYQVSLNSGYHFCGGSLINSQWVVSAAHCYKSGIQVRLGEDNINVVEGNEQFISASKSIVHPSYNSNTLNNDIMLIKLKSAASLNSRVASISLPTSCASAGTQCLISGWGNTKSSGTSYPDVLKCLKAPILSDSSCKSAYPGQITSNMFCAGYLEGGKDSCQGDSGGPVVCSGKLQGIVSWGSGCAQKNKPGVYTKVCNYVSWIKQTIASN
Kind of experiment: In vitro ability to inhibit the activity of Trypsin.

Another experiment has as its target Plasminogen (Homo sapiens, UniProt P00747). Description: In vitro ability to inhibit the activity of Plasmin.

Sequence of Plasminogen (P00747 97-580 limits assumed): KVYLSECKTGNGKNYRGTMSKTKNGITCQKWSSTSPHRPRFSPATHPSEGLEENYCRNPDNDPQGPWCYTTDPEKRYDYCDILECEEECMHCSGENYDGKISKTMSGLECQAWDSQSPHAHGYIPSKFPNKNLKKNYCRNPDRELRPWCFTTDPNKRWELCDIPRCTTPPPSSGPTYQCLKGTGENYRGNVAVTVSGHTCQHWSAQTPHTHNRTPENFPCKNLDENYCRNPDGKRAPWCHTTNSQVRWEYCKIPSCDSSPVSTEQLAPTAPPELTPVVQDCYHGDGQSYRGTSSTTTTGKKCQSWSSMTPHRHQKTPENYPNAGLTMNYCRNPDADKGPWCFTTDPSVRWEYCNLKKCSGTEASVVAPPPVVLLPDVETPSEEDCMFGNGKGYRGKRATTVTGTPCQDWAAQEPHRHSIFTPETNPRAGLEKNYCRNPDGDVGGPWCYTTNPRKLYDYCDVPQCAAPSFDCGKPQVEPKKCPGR
Sequence of Plasminogen (P00747 581-810 limits assumed): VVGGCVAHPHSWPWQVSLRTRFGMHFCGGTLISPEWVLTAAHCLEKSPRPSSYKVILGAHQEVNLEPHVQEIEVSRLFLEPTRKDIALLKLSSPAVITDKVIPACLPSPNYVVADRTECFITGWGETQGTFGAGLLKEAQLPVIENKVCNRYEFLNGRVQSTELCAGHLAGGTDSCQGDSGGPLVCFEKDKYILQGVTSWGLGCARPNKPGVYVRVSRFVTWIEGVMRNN

Consider `N=C(N)NCCC[C@@H](C=O)NC(=O)[C@@H]1CCCN1C(=O)Cc1ccccc1` (PhAc-Pro-Arg-aldehyde), for which the values for the IC50 on Prothrombin, against Serine protease 1 and against Plasminogen were 1.6 µM, 7.2 µM and 41 µM, respectively.
With `CC1CNc2c(cccc2S(=O)(=O)N[C@@H](CCCNC(=N)N)C(=O)N2CCC(C)C[C@@H]2C(=O)O)C1` (single isomer, unassigned) [ARGATROBAN], the results for the IC50 against Serine protease 1 and against Plasminogen were 5 µM and 800 µM, respectively.
With `CC1CNc2c(cccc2S(=O)(=O)N[C@H]2CCC[C@H]3CC[C@@H](C(=O)N[C@H]4CCCN(C(=N)N)C4O)N3C2=O)C1` (stereo partly specified), the half-inhibitory concentration (IC50) against Prothrombin was 0.018 µM; against Serine protease 1, 0.1 µM; at Plasminogen, 1.04 µM.
Consider `N=C(N)N1CCC[C@H](NC(=O)[C@@H]2CC[C@@H]3CCC(Cc4ccccc4)C(=O)N32)C1O` (stereo partly specified), for which, on Prothrombin, the midpoint of inhibition, the IC50, lay at 4.6 µM.
For `N=C(N)N1CCC[C@H](NC(=O)[C@@H]2CC[C@@H]3CCC[C@H](NS(=O)(=O)c4cccc5ccccc45)C(=O)N32)C1O` (stereo partly specified), the concentration for half-maximal inhibition (IC50) against Prothrombin came to 0.11 µM; against Plasminogen, 10 µM.
On to `N=C(N)N1CCC[C@H](NC(=O)[C@@H]2CC[C@@H]3CCCC(Cc4ccccc4)C(=O)N32)C1O` (stereo partly specified), for which the half-maximal inhibitory concentration (IC50) at Prothrombin came out at 1.4 µM.
Regarding `CN[C@@H](C(=O)N1CCC[C@H]1C(=O)N[C@H](C=O)CCCNC(=N)N)c1ccccc1` (H-[dNMePhg]-Pro-Arg-aldehyde), inhibition against Prothrombin was half-maximal at 0.026 µM (IC50). Against the preceding compound, the IC50 is about 54-fold lower.
As to `N=C(N)N1CCC[C@H](NC(=O)[C@@H]2CC[C@@H]3CCC[C@H](NS(=O)(=O)Cc4ccccc4)C(=O)N32)C1O` (stereo partly specified), the IC50 is 0.11 µM at Prothrombin and 10 µM against Plasminogen.
As for `CC(=O)N[C@H]1CCC[C@H]2CC[C@@H](C(=O)N[C@H]3CCCN(C(=N)N)C3O)N2C1=O` (stereo partly specified), the 50% inhibitory concentration (IC50) is 4.3 µM against Prothrombin, 24 µM against Serine protease 1 and 74 µM on Plasminogen.
`CC(=O)N[C@@]1(Cc2ccccc2)CC[C@H]2CC[C@@H](C(=O)N[C@H]3CCCN(C(=N)N)C3O)N2C1=O` (stereo partly specified) returned a concentration for half-maximal inhibition (IC50) against Prothrombin of 3.9 µM. This lies in the single-digit micromolar range.
Consider `CN[C@H](Cc1ccccc1)C(=O)N1CCC[C@H]1C(=O)N[C@H](C=O)CCCN=C(N)N`, for which the IC50 came to 0.02 µM against Serine protease 1 and 0.5 µM on Plasminogen.

The term IC50 denotes the midpoint of a concentration-inhibition curve. Read a low IC50 as inhibition by little substance.
